Blank lines part the entries; values can stand above or below the compound they belong to. Peptide text beside a SMILES is read from it.
Tests used:
mice (CBA/C57BL6) F1 = assay: Acute toxicity of CP-88 in mice; assay type: in vivo; conditions: male and female mice, intraperitoneally once, 0.2 mL per animal; doses 500, 1000 and 10,000 μg/kg
Experimental: This study of acute and chronic toxicity of CP-88 was conducted under the requirements of regulatory documents that regulate this study and are part of a complex of preclinical studies on acute and chronic toxicity that are required for the registration of drugs. Fifty-six male and fifty-six female mice, line (CBA/C57BL6) F1, were used for this study.
To determine acute toxicity, peptide was administered to male and female mice (CBA/C57BL6) F1 (56 male and 56 female mice). The animals were obtained from the Scientific and Production Enterprise “Stolbovaya” Laboratory Animal Nursery, Moscow Region, at the age of 4 weeks. Upon receipt, an external examination of the animal’s condition was conducted.
The drug was administered in the form of aqueous solutions intraperitoneally in doses of 500, 1000, and 10,000 μg/kg in a volume of 0.2 mL per mouse, which exceeded the effective doses of the drug by 50 to 1000 times. Animals of the same batch, injected with distilled water in a volume of 0.2 mL per animal (control substance), were used as a biological control.

[1] = Interspecies extrapolation of the toxicological results to humans; conditions: interspecies extrapolation from the toxicological test results
Experimental: The toxicological test results conclude that in humans, considering interspecies extrapolation, CP-88 can be practically safe with a single and course administration in doses of up to 100 μg/kg. In the first phase of clinical trials, it is advisable to test the drug for tolerability, starting with a dose of 1 μg/kg. The dose can be increased to 10 μg/kg daily with no adverse reactions detected in the clinical results.

[2] = Pharmacokinetics of Stemokin in mice using 3H-Stemokin; assay type: in vivo; conditions: parenteral administration
Experimental: The additional goal of this study was to estimate Stemokin’s pharmacokinetics using 3H-Stemokin.
The main radioactivity was accumulated in the bone marrow. This exceptional tropism to bone marrow could explain its significant hemostimulating activity (Table 4 and Table 5, line 3 underlying the extraordinary tropism of Stemokin to Bone marrow tissue).
Pharmacokinetics of Stemokin With parenteral administration of the drug, a Cmax in the blood was achieved after 5 min […]. A Cmax was observed 30–40 min after administration in bone marrow, liver, kidneys, and lymph nodes. The drug’s T1/2 is 24 h and is eliminated from the body within 72 h. The pharmacokinetics of Stemokin was studied using ^3H-Stemokin, obtained by thermal activation of gaseous tritium. 3H-Stemokin was administered intramuscularly to BDF1 female mice, and 72 h after a single dose, the levels of ^3H-radioactivity were determined in animal organs and tissues. The main amount of radioactivity, ~80%, was excreted within 24 h after administration of ^3H-Stemokin and was less than 5% of the administered dose (Table 4 and Table 5).

[3] = cited from earlier work
From the text: Several cyclopeptides (A1–A5) indicated stimulatory hematopoietic activity sustained in invasive and oral administration.

Compound: CC[C@H](C)[C@H](NC(=O)CC[C@@H]1NC(=O)[C@H](CCC(=O)N[C@@H](Cc2c[nH]c3ccccc23)C(=O)O)NC1=O)C(=O)O [CP-88, Cyclo-[Glu(Ile)-Glu(Trp)]]
acute toxicity: doses with no toxic effects (mice (CBA/C57BL6) F1): up to 10,000 µg/kg
practically safe dose in humans with a single and course administration [1]: up to 100 μg/kg

T1/2 [2]: 24 h
time to Cmax in bone marrow, liver, kidneys, and lymph nodes [2]: 30 to 40 min
time within which the drug is eliminated from the body [2]: ≤ 72 h
Compound: CC[C@H](C)[C@H](N)C(=O)N[C@@H](CCC(=O)O)C(=O)N[C@@H](Cc1c[nH]c2ccccc12)C(=O)O [Stemokin, Ile-Glu-Trp] (H-Ile-Glu-Trp-OH)

Compound: c[DAlaDGlu(DTrp)] [B1]
immuno and hemosuppressive activity (in words) [3]: immuno and hemosuppressive activity

Compound: c[DLysDGlu(DTrp)] [B5]
immuno and hemosuppressive activity (in words) [3]: immuno and hemosuppressive activity

Compound: c[DPheDGlu(DTrp)] [B6]
immuno and hemosuppressive activity (in words) [3]: immuno and hemosuppressive activity

Compound: c[DTyrDGlu(DTrp)] [B9]
immuno and hemosuppressive activity (in words) [3]: immuno and hemosuppressive activity

Compound: cyclo[L-Lys(N-acetyl-Glucosamine-N-acetyl-muramyl)-L-Glu(L-Trp)] [E1]
adjuvant activity (in words) [3]: adjuvant activity

Compound: cyclo[Lys(Palmitoyl)-Glu(D-Trp)] [E3]
adjuvant activity (in words) [3]: adjuvant activity

— paper PMC11679558, “Novel Peptidomimetic Cyclo-{E(I)-E(W)}Na (CP-88) with Hematopoietic Activity Sustained in Invasive and Oral Administration: Experimental and Preclinical Evaluation” (International Journal of Molecular Sciences, 2024)
